Experimental data published in patent publication US12527760B2, “Synthesis of pro-resolving analogs and compositions therefor” (Nocendra Inc., priority 2019, dated 2026).

Assays:
[1] = test system: polymorphonuclear neutrophil infiltration; details: murine peritonitis model, compared with the vehicle control; cited from earlier work
subjects with gingivitis = assay: randomized, placebo-controlled, double-blind clinical study of Compound (Vb) oral rinse in gingivitis; type: in vivo, humans
Procedure: A clinical study comprised of 3 groups in a randomized, placebo-controlled, double-blind design with an additional group that received no treatment was performed to evaluate the use of Compound (Vb) on the treatment of gingivitis. Subjects were healthy adults, aged 18 through 65 years, with gingivitis as defined by […] (MGI)≥2.0. The treatment group (Compound (Vb) oral rinse) and the placebo rinse group consisted of 50 subjects each. The no-rinse control group consisted of 27 subjects. These group sizes were planned to allow for a 20% dropout rate.
(§1) The pH of this solution was 7 or less.
The Compound (Vb) oral rinse group received the active agent at a concentration of 1.0 μM in the oral rinse applied once daily (after morning teeth brushing) for 28 days. Thirty-two subjects reported a total of 56 treatment emergent adverse effects (TEAEs), with the greatest percentage of subjects reporting at least 1 TEAE in the Compound (Vb) group (38.0%) followed by the placebo group (20.0%) and the no-rinse control group (11.1%). Overall, 10 subjects reported at least 1 TEAE considered related to study drug, and 5 subjects reported at least one TEAE related to study procedures.
The primary outcome of this study was safety, and therefore, all efficacy analyses were considered secondary outcomes. The key secondary efficacy outcomes in this study were Modified Gingival Index (MGI) and BOP.

[2] = stability of the methyl ester in the oral rinse formulation over the course of the study; type: physicochemical; details: neutral pH (7 or less)
Excerpt: as §1
Without wishing to be bound by theory, it is believed that […] the pH of the oral rinse formulation increases the stability of the methyl ester forms of these benzo-lipoxin analogs and mimetics, therefore allowing for more efficient delivery of the active compounds (e.g., Compound (Vb), etc.) in these formulations.

[3] = test system: eicosanoid oxido-reductase; details: in comparison with native lipoxin A4; cited from earlier work
[4] = 1.0 μM oral rinse once daily for 28 days
[5] = oral TEAE possibly related to study drug

Question: Which results are given for `CCCCC[C@@H](O)/C=C/c1ccccc1/C=C/[C@@H](O)[C@@H](O)CCCC(=O)OC` [Compound (Vb), methyl (5S,6R,E)-5,6-dihydroxy-8-(2-((R,E)-3-hydroxyoct-1-en-1-yl)phenyl)oct-7-enoate]?
Answer: inhibition of polymorphonuclear neutrophil infiltration [1]: approximately 32%; overall safety and tolerability (subjects with gingivitis; [4]): generally safe and well tolerated; percentage of subjects reporting at least 1 TEAE (subjects with gingivitis; [4]): 38.0%; subjects reporting oral TEAEs considered possibly related to study drug (subjects with gingivitis; [4]): Four; subjects with study drug-related TEAEs (subjects with gingivitis; [4]): 6 subjects; change in mean MGI (subjects with gingivitis; Day 14 and 28, relative to placebo): clinically important decrease; BOP (subjects with gingivitis; Day 28, versus placebo): did not result in meaningful differences; extent of clinical gingivitis (subjects with gingivitis; compared with the placebo group): reduced the extent of clinical gingivitis; TEAEs leading to study drug discontinuation (subjects with gingivitis; human, in vivo): No TEAEs led to study drug discontinuation; severity of oral TEAEs (subjects with gingivitis; human, in vivo, po): mild in severity; subjects reporting an oral disorder (subjects with gingivitis; [5]): 1 subject; subjects reporting dry mouth (subjects with gingivitis; [5]): 3 subjects; pocket depth reduction (subjects with gingivitis; sites with pockets >6 mm, ± SD): −1.23±0.406 mm; stability of the methyl ester in the formulation [2]: increase in the free acid form; conversion to inactive forms [3]: not readily converted to inactive forms
